Test results as given in PMC9652372, “Glycolytic flux control by drugging phosphoglycolate phosphatase” (Nature Communications, 2022).
In brackets after ≈: the same amount, converted by molar mass. Several values for one entry are separate records, joined by “and”; a condition that tells them apart may be missing. Equal entries are not always repeated. Where two headings read alike, the source gives them in different places.

Tests used:
PGP = biological target: T1, PGP (Mus musculus, UniProt Q8CHP8); assay: Steady state kinetics of PG dephosphorylation in presence of CP1-3
T1 sequence (Q8CHP8 1-321): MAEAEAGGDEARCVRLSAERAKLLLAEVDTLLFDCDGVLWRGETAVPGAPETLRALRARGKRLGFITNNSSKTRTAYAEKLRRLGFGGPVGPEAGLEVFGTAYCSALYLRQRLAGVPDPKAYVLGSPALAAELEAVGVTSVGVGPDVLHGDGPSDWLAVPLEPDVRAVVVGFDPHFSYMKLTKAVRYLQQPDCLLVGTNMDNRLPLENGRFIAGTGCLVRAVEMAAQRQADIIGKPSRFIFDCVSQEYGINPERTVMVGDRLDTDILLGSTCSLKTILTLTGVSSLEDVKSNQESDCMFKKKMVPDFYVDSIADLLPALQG

murine PDXP = biological target: T2, murine PDXP (Mus musculus, UniProt P60487); assay: PDXP activity towards pyridoxal 5'-phosphate (PLP); conditions: phosphatase PDXP; species M.m.; substrate PLP; n.s. = no significant inhibition detectable
T2 sequence (P60487 1-292): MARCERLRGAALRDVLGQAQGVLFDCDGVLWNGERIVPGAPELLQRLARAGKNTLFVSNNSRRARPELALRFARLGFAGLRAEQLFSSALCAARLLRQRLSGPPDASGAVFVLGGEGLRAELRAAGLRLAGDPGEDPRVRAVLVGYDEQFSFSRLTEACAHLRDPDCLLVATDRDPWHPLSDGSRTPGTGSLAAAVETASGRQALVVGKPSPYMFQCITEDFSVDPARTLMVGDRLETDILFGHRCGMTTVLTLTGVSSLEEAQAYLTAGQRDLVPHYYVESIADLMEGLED

murine PGP [1] = biological target: T3, murine PGP (Mus musculus, UniProt Q8CHP8); assay: IC50 determination, murine PGP, pNPP dephosphorylation
T3 sequence (Q8CHP8 1-321): T1 sequence (Q8CHP8 1-321)

murine PGP [2] = biological target: T3, murine PGP; assay: biochemical
murine PGP-WT = biological target: T4, murine PGP-WT (Mus musculus, UniProt Q8CHP8); assay: Isothermal titration calorimetry, PGP-WT; type: binding; conditions: ITC; for Kd: murine PGP
T4 construct: His6 (N, cleaved yes); made in house; host or cells: Escherichia coli BL21 (DE3), pETM11, co-expressed with groES-groEL-tig
T4 sequence (Q8CHP8 1-321): T1 sequence (Q8CHP8 1-321)
Description: Purified murine PGP-WT or PGP-P127E was dialyzed overnight against ITC buffer (30 mM HEPES, 30 mM NaCl, 5 mM MgCl2, 1 mM tris(2-carboxyethyl)phosphine/TCEP; pH 7.5). All calorimetric measurements were performed at 25 °C on an ITC200 microcalorimeter (GE Healthcare). Experiments were conducted with a fixed concentration of 2% DMSO. […] To reduce the effects of ligand leakage from the syringe during baseline equilibration, the heat release of a single 1.2 μL injection was recorded prior to the actual titration experiment, and discarded during data analysis with Nitpic 2.0.7[45]. To determine background heats of dilution, control experiments of ligand into buffer, buffer into protein and buffer into buffer titrations were performed.

PGP^WT = biological target: T5, PGP^WT (Mus musculus, UniProt Q8CHP8); assay: Differential scanning fluorimetry (Thermofluor); type: binding
T5 construct: His6 (N, cleaved yes); made in house; host or cells: Escherichia coli BL21 (DE3), pETM11, co-expressed with groES-groEL-tig
T5 sequence (Q8CHP8 1-321): T1 sequence (Q8CHP8 1-321)

physchem = conditions: organic solvent or mixture
murine PDXP/PGP hybrid = biological target: T6, murine PDXP/PGP hybrid (Mus musculus, UniProt P60487+Q8CHP8); assay: PG dephosphorylation by PDXP/PGP hybrid protein; type: biochemical
T6 construct: consisting of the PGP cap domain (amino acids 114–233) fused to the PDXP core domain; His6 (N, cleaved yes); made in house; host or cells: Escherichia coli BL21 (DE3), pETM11
T6 sequence (P60487 1-100): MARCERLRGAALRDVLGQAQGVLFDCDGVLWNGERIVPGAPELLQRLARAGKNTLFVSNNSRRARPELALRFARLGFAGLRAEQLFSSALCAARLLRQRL
T6 sequence (Q8CHP8 114-233): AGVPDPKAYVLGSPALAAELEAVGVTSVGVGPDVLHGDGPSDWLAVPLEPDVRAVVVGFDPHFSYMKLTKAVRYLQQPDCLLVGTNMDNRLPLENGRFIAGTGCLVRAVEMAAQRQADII
T6 sequence (P60487 208-292): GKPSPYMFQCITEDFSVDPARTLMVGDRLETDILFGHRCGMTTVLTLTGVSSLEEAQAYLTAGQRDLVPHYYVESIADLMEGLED
Description: After centrifugation, cells were resuspended in TNM-2 (100 mM triethanolamine, 500 mM NaCl, 20 mM imidazole, 5 mM MgCl2; pH 7.4). Cleared supernatants were loaded on a HisTrap HP nickel sepharose column in TNM-3 (50 mM triethanolamine, 500 mM NaCl, 20 mM imidazole, 5 mM MgCl2; pH 7.4), and His6-tagged proteins were eluted using a linear gradient of up to 50% TNM-4 (50 mM triethanolamine; 250 mM NaCl; 500 mM imidazole; 5 mM MgCl2; pH 7.4). Peak fractions were pooled, the His6-tag was cleaved, and untagged PDXP or PDXP/PGP was isolated, concentrated and further purified by size exclusion chromatography in TNM-5 (50 mM triethanolamine; 250 mM NaCl; 5 mM MgCl2; pH 7.4). […] Data were analyzed with GraphPad Prism 7.04.

[3] = PG dephosphorylation, increasing CP concentrations

## O=C(Nc1ccccc1C(=O)O)c1ccc(Oc2ccc(C(=O)Nc3ccccc3C(=O)O)cc2)cc1 [CP1]
PGP
  mode of PGP inhibition: mixed mode of inhibition
PGP; 0,5 µM CP1, PG 50 µM
  PGP activity: 1.261 µmol Pi/min/mg and 1.442 µmol Pi/min/mg
PGP; 0,5 µM CP1, PG 100 µM
  PGP activity: 3.424 µmol Pi/min/mg and 4.325 µmol Pi/min/mg and 3.784 µmol Pi/min/mg
PGP; 0,5 µM CP1, PG 200 µM
  PGP activity: 7.208 µmol Pi/min/mg and 7.809 µmol Pi/min/mg and 7.689 µmol Pi/min/mg
PGP; 0,5 µM CP1, PG 300 µM
  PGP activity: 11.5358 µmol Pi/min/mg and 12.2568 µmol Pi/min/mg and 11.716 µmol Pi/min/mg
PGP; 0,5 µM CP1, PG 400 µM
  PGP activity: 14.0592 µmol Pi/min/mg and 13.5185 µmol Pi/min/mg
PGP; 0,5 µM CP1, PG 500 µM
  PGP activity: 16.5827 µmol Pi/min/mg and 16.763 µmol Pi/min/mg and 16.2222 µmol Pi/min/mg
PGP; 0,5 µM CP1, PG 600 µM
  PGP activity: 17.6642 µmol Pi/min/mg and 17.3037 µmol Pi/min/mg and 17.4839 µmol Pi/min/mg
PGP; 0,5 µM CP1, PG 700 µM
  PGP activity: 19.4667 µmol Pi/min/mg and 20.1876 µmol Pi/min/mg and 19.2864 µmol Pi/min/mg
PGP; 0,5 µM CP1, PG 800 µM
  PGP activity: 18.0247 µmol Pi/min/mg and 18.9259 µmol Pi/min/mg and 20.0074 µmol Pi/min/mg
PGP; 1 µM CP1, PG 50 µM
  PGP activity: 1.382 µmol Pi/min/mg and 0.901 µmol Pi/min/mg and 0.7809 µmol Pi/min/mg
PGP; 1 µM CP1, PG 100 µM
  PGP activity: 2.763 µmol Pi/min/mg and 2.222 µmol Pi/min/mg and 2.403 µmol Pi/min/mg
PGP; 1 µM CP1, PG 200 µM
  PGP activity: 4.805 µmol Pi/min/mg and 4.745 µmol Pi/min/mg and 4.625 µmol Pi/min/mg
PGP; 1 µM CP1, PG 300 µM
  PGP activity: 7.751 µmol Pi/min/mg and 7.57 µmol Pi/min/mg and 7.39 µmol Pi/min/mg
PGP; 1 µM CP1, PG 400 µM
  PGP activity: 9.373 µmol Pi/min/mg and 8.4716 µmol Pi/min/mg and 9.012 µmol Pi/min/mg
PGP; 1 µM CP1, PG 500 µM
  PGP activity: 11.1753 µmol Pi/min/mg and 10.6346 µmol Pi/min/mg and 10.9951 µmol Pi/min/mg
PGP; 1 µM CP1, PG 600 µM
  PGP activity: 12.437 µmol Pi/min/mg and 11.8963 µmol Pi/min/mg and 13.158 µmol Pi/min/mg
PGP; 1 µM CP1, PG 700 µM
  PGP activity: 13.879 µmol Pi/min/mg and 12.7975 µmol Pi/min/mg
PGP; 1 µM CP1, PG 800 µM
  PGP activity: 14.0592 µmol Pi/min/mg and 13.6988 µmol Pi/min/mg and 12.9778 µmol Pi/min/mg
PGP; 2 µM CP1, PG 50 µM
  PGP activity: 0.6007 µmol Pi/min/mg and 1.021 µmol Pi/min/mg and 0.5406 µmol Pi/min/mg
PGP; 2 µM CP1, PG 100 µM
  PGP activity: 1.562 µmol Pi/min/mg and 1.862 µmol Pi/min/mg and 1.201 µmol Pi/min/mg
PGP; 2 µM CP1, PG 200 µM
  PGP activity: 2.703 µmol Pi/min/mg and 2.643 µmol Pi/min/mg
PGP; 2 µM CP1, PG 300 µM
  PGP activity: 4.867 µmol Pi/min/mg and 5.227 µmol Pi/min/mg and 5.588 µmol Pi/min/mg
PGP; 2 µM CP1, PG 400 µM
  PGP activity: 6.309 µmol Pi/min/mg and 6.128 µmol Pi/min/mg and 5.948 µmol Pi/min/mg
PGP; 2 µM CP1, PG 500 µM
  PGP activity: 7.57 µmol Pi/min/mg and 7.03 µmol Pi/min/mg and 7.21 µmol Pi/min/mg
PGP; 2 µM CP1, PG 600 µM
  PGP activity: 7.751 µmol Pi/min/mg and 7.931 µmol Pi/min/mg
PGP; 2 µM CP1, PG 700 µM
  PGP activity: 7.57 µmol Pi/min/mg and 9.012 µmol Pi/min/mg and 8.291 µmol Pi/min/mg
PGP; 2 µM CP1, PG 800 µM
  PGP activity: 6.849 µmol Pi/min/mg and 8.4716 µmol Pi/min/mg and 8.291 µmol Pi/min/mg
PGP; CP 0.5 µM
  vmax: 39.9 ± 2.9 µmol/min/mg
PGP; CP 1.0 µM
  vmax: 33.6 ± 3.0 µmol/min/mg
PGP; CP 2.0 µM
  vmax: 17.1 ± 2.1 µmol/min/mg
PGP; [3]
  effect on vmax (reduction): ~ 3 fold
  increase of KM: ~ 3 fold
Murine PDXP
  IC50: n.s.
Murine PGP [1]
  IC50: 770 ± 50 nM
Murine PGP [1]; read-out: M.m PGP on pNPP, activity, control = 100.00, CP log[M] -4.60206
  remaining activity at 25 µM: 3.52%
Murine PGP [1]; read-out: M.m PGP on pNPP, activity, control = 100.00, CP log[M] -5
  remaining activity at 10 µM: 6.83%
Murine PGP [1]; read-out: M.m PGP on pNPP, activity, control = 100.00, CP log[M] -5.60206
  remaining activity at […]: 23.4%
Murine PGP [1]; read-out: M.m PGP on pNPP, activity, control = 100.00, CP log[M] -6
  remaining activity at 1 µM: 47.8%
Murine PGP [1]; read-out: M.m PGP on pNPP, activity, control = 100.00, CP log[M] -6.30103
  remaining activity at 0.5 µM: 65%
Murine PGP [1]; read-out: M.m PGP on pNPP, activity, control = 100.00, CP log[M] -6.60206
  remaining activity at […]: 85%
Murine PGP [1]; read-out: M.m PGP on pNPP, activity, control = 100.00, CP log[M] -6.90309
  remaining activity at 0.125 µM: 91.3%
Murine PGP [1]; read-out: M.m PGP on pNPP, activity, control = 100.00, CP log[M] -7.20412
  remaining activity at 0.0625 µM: 99.4%
Murine PGP [1]; read-out: M.m PGP on pNPP, activity, control = 100.00, CP log[M] -7.50515
  remaining activity at 0.03125 µM: 100%
Murine PGP [2]
  IC50: 370 nM and 400 nM
Murine PGP-WT; 25 °C, mean ± S.E.M., n = 3
  Kd: 780 nM
Murine PGP-WT; single replicates
  Kd: 850 nM and 790 nM and 710 nM
  dG: -8.282 kcal/mol and -8.325 kcal/mol and -8.393 kcal/mol
  dH: -5.583 kcal/mol and -4.903 kcal/mol and -5.696 kcal/mol
  dS: 9.052 cal/Mol*K and 11.478 cal/Mol*K and 9.044 cal/Mol*K
PGP^WT; Inhibitor 0.244141 µM
  TM: 66.6 °C
PGP^WT; Inhibitor 0.488281 µM
  TM: 66.6 °C
PGP^WT; Inhibitor 0.976562 µM
  TM: 66.8 °C
PGP^WT; Inhibitor 1.95312 µM
  TM: 67.0 °C
PGP^WT; Inhibitor 3.90625 µM
  TM: 67.7 °C
PGP^WT; Inhibitor 7.8125 µM
  TM: 68.6 °C
PGP^WT; Inhibitor 15.625 µM
  TM: 69.6 °C
PGP^WT; Inhibitor 31.25 µM
  TM: 70.5 °C
PGP^WT; Inhibitor 62.5 µM
  TM: 71.0 °C
PGP^WT; Inhibitor 125 µM
  TM: 71.0 °C
PGP^WT; Inhibitor 250 µM
  TM: 70.1 °C
PGP^WT; from 66.4 °C (control conditions)
  increase in the maximal PGP melting temperature: 4.6 °
physchem
  solubility: 100 mM (≈ 49.6 mg/mL)
Murine PDXP/PGP hybrid; activity, control = 100, CP log[M] -4.79588
  remaining activity at 16 µM: 22%
Murine PDXP/PGP hybrid; activity, control = 100, CP log[M] -5.39794
  remaining activity at 4 µM: 59.9%
Murine PDXP/PGP hybrid; activity, control = 100, CP log[M] -5.69897
  remaining activity at 2 µM: 72%
Murine PDXP/PGP hybrid; activity, control = 100, CP log[M] -6
  remaining activity at 1 µM: 77.3%
Murine PDXP/PGP hybrid; activity, control = 100, CP log[M] -6.30103
  remaining activity at 0.5 µM: 82.6%
Murine PDXP/PGP hybrid; activity, control = 100, CP log[M] -6.60206
  remaining activity at […]: 92.4%
Murine PDXP/PGP hybrid; activity, control = 100, CP log[M] -6.90309
  remaining activity at 0.125 µM: 90.9%
Murine PDXP/PGP hybrid; activity, control = 100, CP log[M] -7.20412
  remaining activity at 0.0625 µM: 93.9%
Murine PDXP/PGP hybrid; activity, control = 100, CP log[M] -7.80618
  remaining activity at 0.015625 µM: 101%
Murine PDXP/PGP hybrid; phosphatase PDXP/PGP, species M.m., substrate PG
  IC50: 13.8 ± 1.43 µM
